Laboratory results as given in patent publication US20240116985A1, “STAPLED PEPTIDES AND METHODS THEREOF” (priority 2020, published 2024).
Read-outs that look alike come from different tables or passages of the source.

Legend:
[1] = target: T1, full-length beta-Catenin (Uniprot ID P35222) (Homo sapiens, UniProt P35222); assay: Fluorescence polarization IC50 (beta-catenin / 5FAM-TCF4 10-53 competition); assay type: binding; details: fluorescence polarization
T1 construct: 10 nM full-length beta-Catenin (Uniprot ID P35222)
T1 sequence (P35222 1-781): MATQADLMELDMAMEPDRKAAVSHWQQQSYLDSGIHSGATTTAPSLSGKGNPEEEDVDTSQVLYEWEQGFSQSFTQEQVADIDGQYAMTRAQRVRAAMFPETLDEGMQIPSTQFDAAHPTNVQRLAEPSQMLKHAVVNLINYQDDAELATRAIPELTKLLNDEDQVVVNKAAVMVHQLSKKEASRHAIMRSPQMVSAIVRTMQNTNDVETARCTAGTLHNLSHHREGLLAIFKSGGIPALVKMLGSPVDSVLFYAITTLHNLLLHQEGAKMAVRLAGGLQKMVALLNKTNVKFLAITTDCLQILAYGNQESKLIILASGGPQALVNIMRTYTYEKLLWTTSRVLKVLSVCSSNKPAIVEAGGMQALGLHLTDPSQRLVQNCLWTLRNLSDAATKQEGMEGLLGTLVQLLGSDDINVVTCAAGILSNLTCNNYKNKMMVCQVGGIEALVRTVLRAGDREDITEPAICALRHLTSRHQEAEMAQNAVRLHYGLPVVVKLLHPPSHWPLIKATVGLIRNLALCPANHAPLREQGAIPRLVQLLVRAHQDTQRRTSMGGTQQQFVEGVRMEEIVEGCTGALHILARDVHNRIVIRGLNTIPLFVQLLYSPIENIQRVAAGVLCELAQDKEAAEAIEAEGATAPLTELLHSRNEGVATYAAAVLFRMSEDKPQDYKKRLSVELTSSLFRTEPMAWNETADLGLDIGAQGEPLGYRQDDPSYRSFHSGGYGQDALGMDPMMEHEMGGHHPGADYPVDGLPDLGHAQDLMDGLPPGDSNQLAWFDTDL

COLO320DM cells = assay type: cell-based; details: COLO320DM cells, absolute IC50; read-out: COLO320DM Proliferation Abs IC50
Protocol: COLO320DM proliferation assay IC50: In some embodiments, inhibition of cell proliferation by provided technologies were assessed using cell lines related to or from certain conditions, disorders or diseases. In some embodiments, cell proliferation was assessed in COLO320DM cells. In some embodiments, assessment was performed using the following procedure: On Day 1, cultured COLO320DM cells in a T75 flask were trypsinized in 3 mL of 0.25% trypsin/EDTA for 5 min and quenched with 10 mL RPMI-1640+4% HI FBS assay media. The cells were spun down at 1200 rpm for 5 min, the cell pellet collected and re-suspended at 5000 cells/mL in assay media. Using a Combi liquid handler, cells were dispensed (50 uL, 250 cells/well) into three 384 well plates. Plates were incubated at 37° C., […]. On day 2, compounds were added. A liquid handling system was used to prepare the compound dilution and dispense compound into assay plates. The compounds were serially diluted 1/2 in 90% DMSO to create a 7 point dose curve. From compound plate, 100 nL of compound were dispensed directly into wells of the assay plates to create a dose curve starting at 20 uM and ending at 313 nM. Assay plates were incubated at 37° C., […]. On day 6, assay plates were removed from the incubator and allowed to sit at room temperature for 30 min. Using a liquid handler, 20 uL of CellTiter Glo reagent was added to each well. The assay plates were shaken for 2 min and allowed to sit on the bench for 10-15 minutes. The assay plates were read using the CellTiter Glo protocol on a GloMax microplate reader, and the data analyzed using GraphPad Prism.

[2] = target: T2, beta-catenin/TCF4 engagement (Homo sapiens, UniProt P35222); assay: Nano-BRET target engagement assay (B-cat-Halo & TCF4-Luc in HEK293 cells); assay type: cell-based; details: absolute IC50
T2 construct: expressed in transfected cells; host or cells: HEK293
T2 sequence (P35222 1-781): T1 sequence (P35222 1-781)

| Structure (SMILES) | IC50 ([1]; read-out: beta-Catenin FP IC50) | IC50 (COLO320DM cells) | IC50 ([2]; read-out: NanoBRET Abs IC50) | IC50 ([1]; beta-Catenin FP IC50 (nM)) | IC50 ([2]; NanoBRET Abs IC50 (uM)) |
| --- | --- | --- | --- | --- | --- |
| CC(=O)N1CCC[C@]12CC=CCCCC1(CCCC=CCCCOC(=O)N3CC[C@@](C(=O)N[C@@H](Cc4ccsc4)C(=O)N[C@@H](Cc4csc5ccccc45)C(=O)N[C@@H](CC(N)=O)C(=O)N[C@@H](C)C(=O)N[C@@H](C)C(=O)N[C@@H](C)C(=O)N[C@@H](C)C(=O)N[C@@H](C)C(N)=O)(C3)NC(=O)[C@H](CC(C)C)NC(=O)[C@H](Cc3ccccc3)NC(=O)[C@H](C)NC(=O)[C@H](C)NC(=O)[C@H](Cc3cccc(C(=O)O)c3)NC(=O)[C@H](CC(=O)O)NC1=O)NC(=O)[C@H](CC(C)(C)C)NC(=O)[C@H](CC(=O)O)NC2=O (stereo partly drawn) [I-2268, Ac-PL3-Asp-Npg-B5-Asp-3COOHF-Ala-Ala-Phe-Leu-PyrS2-3Thi-BztA-Asn-Ala-Ala-Ala-Ala-Ala-NH2] | 13 nM | 4300 nM | 3.1 µM |  |  |
| CC(=O)N1CCC[C@]12CC=CCCCC1(CCCC=CCCCOC(=O)N3CC[C@@](C(=O)N[C@@H](Cc4ccsc4)C(=O)N[C@@H](Cc4csc5ccccc45)C(=O)N[C@@H](CC(N)=O)C(=O)N[C@@H](C)C(=O)N[C@@H](C)C(=O)N[C@@H](C)C(=O)N[C@@H](C)C(=O)N[C@@H](C)C(=O)N[C@@H](C)C(=O)N[C@@H](C)C(N)=O)(C3)NC(=O)[C@H](CC(C)C)NC(=O)[C@H](Cc3ccccc3)NC(=O)[C@H](C)NC(=O)[C@H](C)NC(=O)[C@H](Cc3cccc(C(=O)O)c3)NC(=O)[C@H](CC(=O)O)NC1=O)NC(=O)[C@H](CC(C)(C)C)NC(=O)[C@H](CC(=O)O)NC2=O (stereo partly drawn) [I-2269] |  | 3900 nM |  | 20 nM | 2.3 µM |
| CC(=O)N1CCC[C@]12CC=CCCCC1(CCCC=CCCCOC(=O)N3CC[C@@](C(=O)N[C@@H](Cc4ccsc4)C(=O)N[C@@H](Cc4csc5ccccc45)C(=O)N[C@@H](CC(N)=O)C(=O)N[C@@H](C)C(=O)NC(C)(C)C(=O)N[C@@H](C)C(N)=O)(C3)NC(=O)[C@H](CC(C)C)NC(=O)[C@H](Cc3ccccc3)NC(=O)[C@H](C)NC(=O)[C@H](C)NC(=O)[C@H](Cc3cccc(C(=O)O)c3)NC(=O)[C@H](CC(=O)O)NC1=O)NC(=O)[C@H](CC(C)(C)C)NC(=O)[C@H](CC(=O)O)NC2=O (stereo partly drawn) [I-2271, Ac-PL3-Asp-Npg-B5-Asp-3COOHF-Ala-Ala-Phe-Leu-PyrS2-3Thi-BztA-Asn-Ala-Aib-Ala-NH2] | 13 nM | 9000 nM | 2.3 µM |  |  |
| CC(=O)N1CCC[C@]12CC=CCCCC1(CCCC=CCCCOC(=O)N3CC[C@@](C(=O)N[C@@H](Cc4ccsc4)C(=O)N[C@@H](Cc4csc5ccccc45)C(=O)N[C@@H](CC(N)=O)C(=O)N[C@@H](CC(C)C)C(N)=O)(C3)NC(=O)[C@H](CC(C)C)NC(=O)[C@H](Cc3ccccc3)NC(=O)[C@H](C)NC(=O)[C@H](C)NC(=O)[C@H](Cc3cccc(C(=O)O)c3)NC(=O)[C@H](CC(=O)O)NC1=O)NC(=O)[C@H](CC(C)(C)C)NC(=O)[C@H](CC(=O)O)NC2=O (stereo partly drawn) [I-2274, Ac-PL3-Asp-Npg-B5-Asp-3COOHF-Ala-Ala-Phe-Leu-PyrS2-3Thi-BztA-Asn-Leu-NH2] | 10 nM | 6200 nM | 2 µM |  |  |
| CC(=O)N1CCC[C@]12CC=CCCCC1(CCCC=CCCCOC(=O)N3CC[C@@](C(=O)N[C@@H](Cc4ccccc4C(F)(F)F)C(=O)N[C@@H](Cc4csc5ccccc45)C(=O)N[C@@H](CCC(=O)N(C)C)C(N)=O)(C3)NC(=O)[C@H](CC(C)C)NC(=O)[C@H](Cc3ccccc3)NC(=O)[C@H](C)NC(=O)[C@H](CCC(=O)N(C)C)NC(=O)[C@H](Cc3cccc(C(=O)O)c3)NC(=O)[C@H](CC(=O)O)NC1=O)NC(=O)[C@H](CC(C)(C)C)NC(=O)[C@H](CC(=O)O)NC2=O (stereo partly drawn) [I-2300, Ac-PL3-Asp-Npg-B5-Asp-3COOHF-[NMe2]GlnR-Ala-Phe-Leu-PyrS2-2F3MeF-BztA-INMe2]GlnR-NH2] | 6 nM | > 20000 nM | 1.2 µM |  |  |
| CC(=O)N1CCC[C@]12CC=CCCCC1(CCCC=CCCCOC(=O)N3CC[C@@](C(=O)N[C@@H](Cc4ccccc4C(F)(F)F)C(=O)N[C@@H](Cc4csc5ccccc45)C(=O)N[C@@H](C)C(N)=O)(C3)NC(=O)[C@H](CC(C)C)NC(=O)[C@H](Cc3ccccc3)NC(=O)[C@H](C)NC(=O)[C@H](CCC(=O)N3CCOCC3)NC(=O)[C@H](Cc3cccc(C(=O)O)c3)NC(=O)[C@H](CC(=O)O)NC1=O)NC(=O)[C@H](CC(C)(C)C)NC(=O)[C@H](CC(=O)O)NC2=O (stereo partly drawn) [I-2315, Ac-PL3-Asp-Npg-B5-Asp-3COOHF-[Morph]GlnR-Ala-Phe-Leu-PyrS2-2F3MeF-BztA-Ala-NH2] | 5 nM | > 20000 nM | 1.2 µM |  |  |
| CC(=O)N1CCC[C@]12CC=CCCCC1(CCCC=CCCCOC(=O)N3CC[C@@](C(=O)N[C@@H](Cc4ccccc4C(F)(F)F)C(=O)N[C@@H](Cc4csc5ccccc45)C(=O)N[C@@H](C)C(N)=O)(C3)NC(=O)[C@H](CC(C)C)NC(=O)[C@H](Cc3ccccc3)NC(=O)[C@H](C)NC(=O)[C@H](CCC(=O)N3CCN(CC(F)(F)F)CC3)NC(=O)[C@H](Cc3cccc(C(=O)O)c3)NC(=O)[C@H](CC(=O)O)NC1=O)NC(=O)[C@H](CC(C)(C)C)NC(=O)[C@H](CC(=O)O)NC2=O (stereo partly drawn) [I-2316, Ac-PL3-Asp-Npg-B5-Asp-3COOHF-[TfePpz]GlnR-Ala-Phe-Leu-PyrS2-2F3MeF-BztA-Ala-NH2] | 11 nM | > 20000 nM | 1.6 µM |  |  |
| CC(=O)N1CCC[C@]12CC=CCCCC1(CCCC=CCCCOC(=O)N3CC[C@@](C(=O)N[C@@H](Cc4ccccc4C(F)(F)F)C(=O)N[C@@H](Cc4csc5ccccc45)C(=O)N[C@@H](C)C(N)=O)(C3)NC(=O)[C@H](CC(C)C)NC(=O)[C@H](Cc3ccccc3)NC(=O)[C@H](C)NC(=O)[C@H](CCC(=O)N3CCNC(=O)C3)NC(=O)[C@H](Cc3cccc(C(=O)O)c3)NC(=O)[C@H](CC(=O)O)NC1=O)NC(=O)[C@H](CC(C)(C)C)NC(=O)[C@H](CC(=O)O)NC2=O (stereo partly drawn) [I-2318, Ac-PL3-Asp-Npg-B5-Asp-3COOHF-[2OxoPpz]GlnR-Ala-Phe-Leu-PyrS2-2F3MeF-BztA-Ala-NH2] | 5 nM | > 20000 nM | 1.8 µM |  |  |
| CC(=O)N1CCC[C@]12CC=CCCCC1(CCCC=CCCCOC(=O)N3CC[C@@](C(=O)N[C@@H](Cc4ccccc4C(F)(F)F)C(=O)N[C@@H](Cc4csc5ccccc45)C(=O)N[C@@H](C)C(N)=O)(C3)NC(=O)[C@H](CC(C)C)NC(=O)[C@H](Cc3ccccc3)NC(=O)[C@H](C)NC(=O)[C@H](CCC(=O)N3Cc4ccccc4C3)NC(=O)[C@H](Cc3cccc(C(=O)O)c3)NC(=O)[C@H](CC(=O)O)NC1=O)NC(=O)[C@H](CC(C)(C)C)NC(=O)[C@H](CC(=O)O)NC2=O (stereo partly drawn) [I-2320, Ac-PL3-Asp-Npg-B5-Asp-3COOHF-[isoindoline]GlnR-Ala-Phe-Leu-PyrS2-2F3MeF-BztA-Ala-NH2] | 29 nM | > 20000 nM | 2.7 µM |  |  |
| COCCN(CCOC)C(=O)CC[C@@H]1NC(=O)[C@H](Cc2cccc(C(=O)O)c2)NC(=O)[C@H](CC(=O)O)NC(=O)C2(CCCC=CCCCOC(=O)N3CC[C@@](C(=O)N[C@@H](Cc4ccccc4C(F)(F)F)C(=O)N[C@@H](Cc4csc5ccccc45)C(=O)N[C@@H](C)C(N)=O)(C3)NC(=O)[C@H](CC(C)C)NC(=O)[C@H](Cc3ccccc3)NC(=O)[C@H](C)NC1=O)CCCC=CC[C@]1(CCCN1C(C)=O)C(=O)N[C@@H](CC(=O)O)C(=O)N[C@@H](CC(C)(C)C)C(=O)N2 (stereo partly drawn) [I-2322, Ac-PL3-Asp-Npg-B5-Asp-3COOHF-[bismethoxyethylamine]GlnR-Ala-Phe-Leu-PyrS2-2F3MeF-BztA-Ala-NH2] | 7 nM | > 20000 nM | 1.8 µM |  |  |
